The text below walks through data of patent publication US20260098053A1, “COMPOSITIONS AND METHODS FOR TREATING CNS DISORDERS” (SAGE THERAPEUTICS, INC., priority 2019, published 2026).

Each structure is given as a SMILES string.

The target in one experiment is [35S]-TBPS binding, rat brain cortical membranes. Nature of the experiment: Steroid inhibition of [35S]-TBPS binding. The conditions noted are these: Table 4, 3 nM [35S]-TBPS, in the presence of 5 mM GABA, read-out: TBPS IC50. As for the experimental part: [35S]-t-Butylbicyclophosphorothionate (TBPS) binding assays using rat brain cortical membranes in the presence of 5 mM GABA has been described (Gee et al, J. Pharmacol. Exp. Ther. 1987, 241, 346-353; Hawkinson et al, Mol. Pharmacol. 1994, 46, 977-985; Lewin, A. H et al., Mol. Pharmacol. 1989, 35, 189-194).
Briefly, cortices are rapidly removed following decapitation of carbon dioxide-anesthetized Sprague-Dawley rats (200-250 g). The cortices are homogenized in 10 volumes of ice-cold 0.32 M sucrose using a glass/teflon homogenizer and centrifuged at 1500×g for 10 min at 4° C. The resultant supernatants are centrifuged at 10,000×g for 20 min at 4° C. to obtain the P2 pellets. The P2 pellets are resuspended in 200 mM NaCl/50 mM Na—K phosphate pH 7.4 buffer and centrifuged at 10,000×g for 10 min at 4° C. This washing procedure is repeated twice and the pellets are resuspended in 10 volumes of buffer. Aliquots ([…]) of the membrane suspensions are incubated with 3 nM [^35S]-TBPS and […] aliquots of test drug dissolved in dimethyl sulfoxide (DMSO) (final 0.5%) in the presence of 5 mM GABA. The incubation is brought to a final volume of 1.0 mL with buffer. Nonspecific binding is determined in the presence of […] and ranged from 15 to 25%. Following a 90 min incubation at room temp, the assays are terminated by filtration through glass fiber filters (Schleicher and Schuell No. 32) using a cell harvester (Brandel) and rinsed three times with ice-cold buffer. Filter bound radioactivity is measured by liquid scintillation spectrometry. Non-linear curve fitting of the overall data for each drug averaged for each concentration is done using Prism (GraphPad). […] The concentration of test compound producing 50% inhibition (IC50) of specific binding and the maximal extent of inhibition (Imax) are determined for the individual experiments with the same model used for the overall data and then the means±SEM.s of the individual experiments are calculated.
Various compounds are or can be screened to determine their potential as modulators of [^35S]-TBPS binding in vitro. These assays are or can be performed in accordance with the above
On to `CC(=O)[C@H]1CCCC[C@H]2[C@@H]3CC[C@@H]4C[C@](C)(O)CCC[C@]4(C)[C@H]3CC[C@]12C` [Example 59, 1-((1S,5aS,5bR,7aR,9R,12aS,12bS,14aS)-9-hydroxy-9,12a,14a-trimethylicosahydrodicyclohepta[a,f]naphthalen-1-yl)ethanone], for which the concentration for half-maximal inhibition (IC50) lay within 100 to 1000 nM. Consider `C[C@]1(O)CC[C@@H]2CC[C@@H]3[C@H](CC[C@]4(C)[C@@H](C(=O)CCn5cc(C#N)cn5)CCC[C@@H]34)[C@@]2(C)CC1` [Example 54, 1-(3-((1S,4aS,4bR,6aS,9S,11aS,11bS,13aS)-9-hydroxy-9,11a,13a-trimethyloctadecahydro-1H-cyclohepta[a]phenanthren-1-yl)-3-oxopropyl)-1H-pyrazole-4-carbonitrile], for which the half-maximal inhibitory concentration (IC50) lay in the range of 100 to 1000 nM. Take `CC[C@]1(O)CC[C@H]2CC[C@@H]3[C@H](CC[C@]4(C)[C@H](C(=O)Cn5cc(C#N)cn5)CCC[C@@H]34)[C@H]2CC1` [Example 48, 1-(2-((1R,4aS,4bR,6aR,9S,11aS,11bR,13aS)-9-ethyl-9-hydroxy-13a-methyloctadecahydro-1H-cyclohepta[a]phenanthren-1-yl)-2-oxoethyl)-1H-pyrazole-4-carbonitrile]: the IC50 was more than 1000 nM. As for `CC(=O)[C@H]1CCC[C@H]2[C@@H]3CC[C@@H]4C[C@](C)(O)CCC[C@]4(C)[C@H]3CC[C@]12C` [Example 15, 1-((1S,4aS,4bR,6aR,8R,11aS,11bS,13aS)-8-hydroxy-8,11a,13a-trimethyloctadecahydro-1H-cyclohepta[a]phenanthren-1-yl)ethan-1-one], the IC50 was less than 100 nM. Take `CC[C@]12CC[C@@](C)(O)C[C@H]1CC[C@H]1[C@@H]3CCCC[C@@H](C(C)=O)[C@@]3(C)CC[C@@H]12` [Example 23, 1-((2R,4aS,4bS,6aS,7R,11aS,11bS,13aR)-4a-ethyl-2-hydroxy-2,6a-dimethyloctadecahydro-1H-cyclohepta[a]phenanthren-7-yl)ethanone]: the IC50 was 100 to 1000 nM. As to `Cc1nnnn1CC(=O)[C@H]1CCC[C@H]2[C@@H]3CC[C@@H]4C[C@](C)(O)CCC[C@@H]4[C@H]3CC[C@]12C` [Example 12, 1-((1S,4aS,4bR,6aR,8R,11aS,11bR,13aS)-8-hydroxy-8,13a-dimethyloctadecahydro-1H-cyclohepta[a]phenanthren-1-yl)-2-(5-methyl-1H-tetrazol-1-yl)ethan-1-one], the IC50 is less than 100 nM. In the case of `CC[C@]12CC[C@H]3[C@@H](CC[C@@H]4C[C@](C)(O)CC[C@@H]43)[C@@H]1CCC[C@@H]2C(C)=O` [Example 27, 1-((1S,4aS,4bR,6aR,8R,10aS,10bR,12aS)-12a-ethyl-8-hydroxy-8-methyloctadecahydrochrysen-1-yl)ethanone], the IC50 is less than 100 nM. Regarding `CC[C@]12CC[C@H]3[C@@H](CC=C4CC[C@](C)(O)CC[C@@]43C)[C@@H]1CC[C@@H]2C(C)=O` [Example 34, 1-((1S,3aS,3bS,8S,10aR,10bS,12aS)-12a-ethyl-8-hydroxy-8,10a-dimethyl-1,2,3,3a,3b,4,6,7,8,9,10,10a,10b,11,12,12a-hexadecahydrocyclohepta[a]cyclopenta[f]naphthalen-1-yl)ethanone], the IC50 is less than 100 nM. Same read-out and setting: to `CC[C@]12CCCC(C)(O)C[C@H]1CC[C@H]1[C@@H]3CC[C@H](C(=O)Cn4cc(C#N)cn4)[C@@]3(C)CC[C@@H]12` (stereo in doubt) [Example 20, 1-(2-((1S,3aS,3bS,5aR,7S,10aS,10bS,12aS)-10a-ethyl-7-hydroxy-7,12a-dimethyloctadecahydrocyclohepta[a]cyclopenta[f]naphthalen-1-yl)-2-oxoethyl)-1H-pyrazole-4-carbonitrile] belongs less than 100 nM; to `CC[C@]12CC[C@H]3[C@@H](CC=C4CC[C@](C)(O)CC[C@@]43C)[C@@H]1CC[C@@H]2C(=O)Cn1cc(C#N)cn1` [Example 35, 1-(2-((1S,3aS,3bS,8S,10aR,10bS,12aS)-12a-ethyl-8-hydroxy-8,10a-dimethyl-1,2,3,3a,3b,4,6,7,8,9,10,10a,10b,11,12,12a-hexadecahydrocyclohepta[a]cyclopenta[f]naphthalen-1-yl)-2-oxoethyl)-1H-pyrazole-4-carbonitrile], less than 100 nM.

Consider `CC(=O)[C@H]1CCC[C@H]2[C@@H]3CC[C@@H]4CC[C@](C)(O)CC[C@]4(C)[C@H]3CC[C@]12C` [Example 53, 1-((1S,4aS,4bR,6aR,9S,11aS,11bS,13aS)-9-hydroxy-9,11a,13a-trimethyloctadecahydro-1H-cyclohepta[a]phenanthren-1-yl)ethanone], for which the IC50 was more than 1000 nM. Take `CC[C@]12CC[C@H]3[C@@H](CC[C@@H]4CC[C@@](O)(COC)CC[C@@H]43)[C@@H]1CC[C@@H]2C(=O)Cn1cc(C#N)cn1` [Example 31, 1-(2-((1S,3aS,3bR,5aR,8S,10aS,10bR,12aS)-12a-ethyl-8-hydroxy-8-(methoxymethyl)octadecahydrocyclohepta[a]cyclopenta[f]naphthalen-1-yl)-2-oxoethyl)-1H-pyrazole-4-carbonitrile]: the IC50 was 100 to 1000 nM. Still for that read-out and setting: to `CC[C@]12CC[C@@](C)(O)C[C@H]1CC[C@H]1[C@@H]3CCC[C@H](C(=O)Cn4cc(C#N)cn4)[C@@]3(C)CC[C@@H]12` [Example 19, 1-(2-((1S,4aS,4bS,6aR,8R,10aS,10bS,12aS)-10a-ethyl-8-hydroxy-8,12a-dimethyloctadecahydrochrysen-1-yl)-2-oxoethyl)-1H-pyrazole-4-carbonitrile] belongs less than 100 nM; to `C[C@]1(O)CC[C@H]2CC[C@@H]3[C@H](CC[C@]4(C)[C@@H](C(=O)Cn5cc(C#N)cn5)CCC[C@@H]34)[C@@]2(C)CC1` [Example 52, 1-(2-((1S,4aS,4bR,6aR,9S,11aS,11bS,13aS)-9-hydroxy-9,11a,13a-trimethyloctadecahydro-1H-cyclohepta[a]phenanthren-1-yl)-2-oxoethyl)-1H-pyrazole-4-carbonitrile], 100 to 1000 nM.

The experiment is the same for the next values; noted with them: Table 5, 3 nM [35S]-TBPS, in the presence of 5 mM GABA, read-out: TBPS IC50.
For the compound `C[C@@]1(O)CC[C@H]2[C@H](CC[C@@H]3[C@@H]2CC[C@H]2[C@H]3CCC[C@@H]2C(=O)Cn2cc(C#N)cn2)C1` [Example 78, 1-(2-((1S,4aS,4bR,6aR,8R,10aS,10bR,12aS)-8-hydroxy-8-methyloctadecahydrochrysen-1-yl)-2-oxoethyl)-1H-pyrazole-4-carbonitrile], the half-maximal inhibitory concentration (IC50) was less than 100 nM.

With `CC(=O)[C@@H]1CCC[C@H]2[C@@H]3CC[C@@H]4C[C@](C)(O)CC[C@@H]4[C@H]3CC[C@@H]21` [Example 75, 1-((1R,4aS,4bR,6aR,8R,10aS,10bR,12aS)-8-hydroxy-8-methyloctadecahydrochrysen-1-yl)-ethanone], the IC50 was more than 1000 nM. As for `Cc1nnn(CC(=O)[C@H]2CC[C@H]3[C@@H]4CC[C@H]5C[C@](C)(O)CC[C@@H]5[C@H]4CC[C@@H]32)n1` [Example 73, 1-((3R,5S,8R,9R,10S,13S,14S,17S)-3-hydroxy-3-methylhexadecahydro-1H-cyclopenta[a]phenanthren-17-yl)-2-(5-methyl-2H-tetrazol-2-yl)ethanone], the IC50 was more than 1000 nM. `CC[C@]12CC[C@@](C)(O)C[C@H]1CC[C@H]1[C@@H]3CC[C@H](C(=O)Cn4nnnc4C)[C@H]3CC[C@@H]12` [Example 82, 1-((3R,5R,8S,9S,10S,13S,14S,17S)-10-ethyl-3-hydroxy-3-methylhexadecahydro-1H-cyclopenta[a]phenanthren-17-yl)-2-(5-methyl-1H-tetrazol-1-yl)ethanone]: the concentration for half-maximal inhibition (IC50) was less than 100 nM.

The experiment is the same for the next values; noted with them: Table 6, 3 nM [35S]-TBPS, in the presence of 5 mM GABA, read-out: IC50.
Consider `CC(=O)[C@H]1CCC[C@H]2[C@@H]3CC[C@@H]4C[C@](C)(O)CC[C@]4(C4CC4)[C@H]3CC[C@]12C` [Example 85, 1-((1S,4aS,4bS,6aR,8R,10aR,10bS,12aS)-10a-cyclopropyl-8-hydroxy-8,12a-dimethyloctadecahydrochrysen-1-yl)ethan-1-one], for which the IC50 was less than 100 nM. The same measure, in the same setting: to `CC[C@]12CC[C@H]3[C@@H](CC[C@@H]4C[C@](C)(O)CC[C@@]43C3CC3)[C@@H]1CC[C@@H]2C(C)=O` [Example 88, 1-((3R,5R,8S,9S,10R,13S,14S,17S)-10-cyclopropyl-13-ethyl-3-hydroxy-3-methylhexadecahydro-1H-cyclopenta[a]phenanthren-17-yl)ethanone] belongs less than 100 nM.

A word on the IC50: it is the concentration needed to halve the response being measured.
